The values that follow come from publication PMC5119973 (Cancer Medicine, 2016).

Values joined by “and” are separate entries in the source; they are usually repeats but may differ in a detail not shown here. Identical values can stand only once.

For one data set, the target named is T1, BRAF (Homo sapiens, UniProt P15056).
T1 construct: purchased DiscoveRx (KINOMEscan service)
Put plainly: KINOMEscan active-site competitive binding assay. The conditions noted are these: slash = two separate measurements.

Another data set addresses T2, DDR1 (Homo sapiens, UniProt Q08345).
T2 construct: purchased DiscoveRx (KINOMEscan service)
Put plainly: KINOMEscan active-site competitive binding assay. Conditions: slash = two separate measurements.

The target in a further data set is T3, EPHA6 (Homo sapiens, UniProt Q9UF33).
T3 construct: purchased DiscoveRx (KINOMEscan service)
T3 sequence (Q9UF33 23-1036): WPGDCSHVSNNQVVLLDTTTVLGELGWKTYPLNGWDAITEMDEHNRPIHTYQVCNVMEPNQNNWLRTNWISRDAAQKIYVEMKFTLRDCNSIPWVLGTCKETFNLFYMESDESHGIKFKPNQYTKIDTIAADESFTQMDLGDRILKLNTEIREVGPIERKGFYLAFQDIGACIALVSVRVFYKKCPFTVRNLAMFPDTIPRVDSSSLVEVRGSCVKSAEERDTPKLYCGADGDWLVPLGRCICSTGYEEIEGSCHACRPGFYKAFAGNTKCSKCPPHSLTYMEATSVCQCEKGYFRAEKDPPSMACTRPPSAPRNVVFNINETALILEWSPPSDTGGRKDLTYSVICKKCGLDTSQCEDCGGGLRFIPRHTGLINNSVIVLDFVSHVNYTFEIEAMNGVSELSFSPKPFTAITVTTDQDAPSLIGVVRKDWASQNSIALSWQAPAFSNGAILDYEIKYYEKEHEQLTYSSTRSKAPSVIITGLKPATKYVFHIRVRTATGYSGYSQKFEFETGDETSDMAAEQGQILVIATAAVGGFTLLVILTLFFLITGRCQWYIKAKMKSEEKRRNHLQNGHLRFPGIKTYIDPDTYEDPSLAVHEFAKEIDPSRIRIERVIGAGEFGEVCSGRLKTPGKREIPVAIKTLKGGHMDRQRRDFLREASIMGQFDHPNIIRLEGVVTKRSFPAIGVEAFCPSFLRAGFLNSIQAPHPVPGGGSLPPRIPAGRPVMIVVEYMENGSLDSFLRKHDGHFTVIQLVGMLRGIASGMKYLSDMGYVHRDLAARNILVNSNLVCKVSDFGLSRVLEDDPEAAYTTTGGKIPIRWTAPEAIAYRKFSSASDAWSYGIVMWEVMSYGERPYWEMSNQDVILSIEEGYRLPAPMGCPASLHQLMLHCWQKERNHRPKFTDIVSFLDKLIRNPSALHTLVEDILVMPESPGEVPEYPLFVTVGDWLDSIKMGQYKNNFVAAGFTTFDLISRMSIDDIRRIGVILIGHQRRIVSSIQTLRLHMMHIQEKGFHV
The experiment in a line: KINOMEscan active-site competitive binding assay. Conditions: slash = two separate measurements.

The next data set has as its target T4, MAP4K4 (Homo sapiens, UniProt O95819).
T4 construct: purchased DiscoveRx (KINOMEscan service)
Put plainly: KINOMEscan active-site competitive binding assay. The conditions noted are these: slash = two separate measurements.

A further data set addresses T5, MEK5 (Homo sapiens, UniProt Q13163).
T5 construct: purchased DiscoveRx (KINOMEscan service)
T5 sequence (Q13163 1-448): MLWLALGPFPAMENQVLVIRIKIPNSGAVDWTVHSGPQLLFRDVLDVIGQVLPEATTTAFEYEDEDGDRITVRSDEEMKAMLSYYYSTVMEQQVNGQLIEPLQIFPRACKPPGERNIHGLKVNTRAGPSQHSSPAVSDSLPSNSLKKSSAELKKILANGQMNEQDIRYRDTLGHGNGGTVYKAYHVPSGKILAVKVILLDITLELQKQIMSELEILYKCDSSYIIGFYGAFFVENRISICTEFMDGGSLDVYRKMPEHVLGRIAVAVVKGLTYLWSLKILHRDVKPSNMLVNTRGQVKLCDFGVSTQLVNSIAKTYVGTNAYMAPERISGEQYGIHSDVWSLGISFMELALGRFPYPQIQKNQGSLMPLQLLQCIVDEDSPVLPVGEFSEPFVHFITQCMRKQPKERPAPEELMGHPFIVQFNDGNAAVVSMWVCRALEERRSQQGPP
Put plainly: KINOMEscan active-site competitive binding assay.

The target in a further data set is T6, MKNK2 (Homo sapiens, UniProt Q9HBH9).
T6 construct: purchased DiscoveRx (KINOMEscan service)
T6 sequence (Q9HBH9 whole entry): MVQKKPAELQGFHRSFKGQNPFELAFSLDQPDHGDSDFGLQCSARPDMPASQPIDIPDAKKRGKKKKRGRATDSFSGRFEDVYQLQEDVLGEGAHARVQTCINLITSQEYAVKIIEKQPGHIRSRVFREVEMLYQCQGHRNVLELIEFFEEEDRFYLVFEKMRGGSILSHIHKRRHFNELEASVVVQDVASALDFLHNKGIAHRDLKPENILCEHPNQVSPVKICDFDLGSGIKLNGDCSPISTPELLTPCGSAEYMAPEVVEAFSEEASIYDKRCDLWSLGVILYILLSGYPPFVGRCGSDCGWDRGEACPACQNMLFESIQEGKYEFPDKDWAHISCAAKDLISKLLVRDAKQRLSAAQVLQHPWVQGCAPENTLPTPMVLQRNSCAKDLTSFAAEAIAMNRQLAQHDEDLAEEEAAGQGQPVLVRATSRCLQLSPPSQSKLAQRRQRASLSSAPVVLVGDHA
Put plainly: KINOMEscan active-site competitive binding assay. Conditions: slash = two separate measurements.

In a further data set the target is T7, RAF1 (Homo sapiens, UniProt P04049).
T7 construct: purchased DiscoveRx
The experiment in a line: KINOMEscan active-site competitive binding assay. The conditions noted are these: slash = two separate measurements.

The next data set addresses T8, SLK (Homo sapiens, UniProt Q9H2G2).
T8 construct: purchased DiscoveRx
Put plainly: KINOMEscan active-site competitive binding assay. Conditions: slash = two separate measurements.

A further data set concerns the target T9, TRKC (Homo sapiens, UniProt Q16288).
T9 construct: purchased DiscoveRx
The experiment in a line: KINOMEscan active-site competitive binding assay. Conditions: slash = two separate measurements.

The next data set has as its target T10, ZAK (Homo sapiens, UniProt Q9NYL2).
T10 construct: purchased DiscoveRx
Put plainly: KINOMEscan active-site competitive binding assay. The conditions noted are these: slash = two separate measurements.

Another data set has as its target T11, PDGFRα (Homo sapiens, UniProt P16234).
T11 construct: host or cells: PathHunter cell line (U2OS/PDGFRA)
Put plainly: PDGFRA phosphorylation assay, PathHunter cell line U2OS/PDGFRA. It is filed as cell-based. The conditions noted are these: U2OS/PDGFRA cells; 0.1% bovine serum albumin; read-out: Mean ± SD IC50. As to the method:
VEGFR2 assays were performed in murine fibroblasts (NIH‐3T3) in the presence of 0.1 mg/mL human serum albumin. […] Substrate phosphorylation was determined from total cell lysates by enzyme‐linked immunosorbent assay. In addition, an FGFR phosphorylation assay was performed using a human gastric carcinoma cell line (SNU‐16), with pFGFR assessed by western blot. The PDGFRA phosphorylation assay was performed by DiscoverRx using the DiscoverRx PathHunter cell line, modified to express PDGFRA. […] The assay signal was generated using a detection reagent cocktail and measured by chemoluminescence 13. Both the PDGFRA and FGFR assays were performed in the presence of 0.1 mg/mL BSA.

A further data set has as its target T12, VEGFR3 (Homo sapiens, UniProt P35916).
T12 construct: VEGFR3 autophosphorylation in HuLECs; endogenous in cells; host or cells: HuLEC
The experiment in a line: VEGFR3 autophosphorylation in HuLECs stimulated with VEGF‐C (western blot). It is filed as cell-based. The conditions noted are these: VEGF‐C stimulation, 0.1% bovine serum albumin, estimated from western blots, read-out: Mean ± SD IC50. As to the method: Endothelial cell assays were performed as described previously 14. In brief, HuVECs and HuLECs were grown in EBM‐2 supplemented with growth factors (Lonza, Walkersville, MD). After serum starvation for 6 h in EBM‐2 containing 0.1% BSA, 2 × 10^5 cells were treated with various concentrations of each compound for 1 h before stimulation with VEGF‐A (50 ng/mL) or VEGF‐C (200 ng/mL) for 10 min. Cells were lysed, and total cell lysates were analyzed for inhibition of phosphorylation by western blot, using antibodies against total and phosphorylated VEGFR2 and VEGFR3, ERK1/2, and AKT. Signals were detected by […] luminescence (GE Healthcare Biosciences; Pittsburgh, PA).

Data set [1] is described as follows: Plasma protein binding in vitro (Transil), human plasma. The conditions noted are these: for Proportion of protein‐bound drug / Unbound fraction, fold lower than that of regorafenib / Major plasma protein to which the compound was bound: human plasma; for Major plasma protein to which the compound was bound: data not shown; for Unbound fraction, fold lower in human than in murine plasma: human versus murine plasma. It is filed as in vitro ADME. As to the method:
A radioactivity analysis was performed by liquid scintillation counting. […] All compounds were tested for stability at the incubation conditions used.

Data set [2] deals with lung tumor cell lines expressing wt or mutant DDR2. Put plainly: Preliminary in vitro proliferation, lung tumor cell lines expressing wt or mutant DDR2. The format is cell-based. Conditions: unpubl. data.
The mark [3] stands for this setting: human, male, plasma, arithmetic mean ± SD.

T8 sequence (Q9H2G2 whole entry): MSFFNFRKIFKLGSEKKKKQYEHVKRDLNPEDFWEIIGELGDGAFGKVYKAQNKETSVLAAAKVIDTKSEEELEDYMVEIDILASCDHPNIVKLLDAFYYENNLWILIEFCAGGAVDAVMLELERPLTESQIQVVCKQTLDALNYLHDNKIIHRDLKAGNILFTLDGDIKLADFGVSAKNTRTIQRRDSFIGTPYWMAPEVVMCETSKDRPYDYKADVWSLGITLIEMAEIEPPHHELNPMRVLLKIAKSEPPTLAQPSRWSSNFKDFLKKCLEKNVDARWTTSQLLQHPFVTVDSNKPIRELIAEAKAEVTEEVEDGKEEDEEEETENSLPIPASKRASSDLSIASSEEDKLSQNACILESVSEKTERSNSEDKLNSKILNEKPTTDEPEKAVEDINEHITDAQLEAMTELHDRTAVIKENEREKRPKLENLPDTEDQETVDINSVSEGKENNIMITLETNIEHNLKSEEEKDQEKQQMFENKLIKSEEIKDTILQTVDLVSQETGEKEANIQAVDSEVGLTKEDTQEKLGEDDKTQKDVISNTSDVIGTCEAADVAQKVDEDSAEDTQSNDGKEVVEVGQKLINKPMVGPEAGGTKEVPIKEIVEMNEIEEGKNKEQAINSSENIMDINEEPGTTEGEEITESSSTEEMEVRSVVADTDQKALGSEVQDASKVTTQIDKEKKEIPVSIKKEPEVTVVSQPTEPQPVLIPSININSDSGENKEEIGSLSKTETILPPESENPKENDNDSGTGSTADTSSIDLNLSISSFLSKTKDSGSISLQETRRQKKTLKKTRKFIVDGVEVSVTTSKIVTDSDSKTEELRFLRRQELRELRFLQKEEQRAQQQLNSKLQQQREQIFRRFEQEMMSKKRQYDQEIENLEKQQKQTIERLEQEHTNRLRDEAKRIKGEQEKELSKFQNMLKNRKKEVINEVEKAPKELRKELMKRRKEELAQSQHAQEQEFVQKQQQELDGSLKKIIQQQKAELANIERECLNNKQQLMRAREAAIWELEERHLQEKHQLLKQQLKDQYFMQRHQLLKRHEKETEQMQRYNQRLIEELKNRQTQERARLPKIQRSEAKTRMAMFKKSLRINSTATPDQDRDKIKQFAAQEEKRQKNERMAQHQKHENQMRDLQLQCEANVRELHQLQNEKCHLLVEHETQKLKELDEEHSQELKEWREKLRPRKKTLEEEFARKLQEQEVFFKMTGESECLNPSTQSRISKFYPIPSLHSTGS
T10 sequence (Q9NYL2 whole entry): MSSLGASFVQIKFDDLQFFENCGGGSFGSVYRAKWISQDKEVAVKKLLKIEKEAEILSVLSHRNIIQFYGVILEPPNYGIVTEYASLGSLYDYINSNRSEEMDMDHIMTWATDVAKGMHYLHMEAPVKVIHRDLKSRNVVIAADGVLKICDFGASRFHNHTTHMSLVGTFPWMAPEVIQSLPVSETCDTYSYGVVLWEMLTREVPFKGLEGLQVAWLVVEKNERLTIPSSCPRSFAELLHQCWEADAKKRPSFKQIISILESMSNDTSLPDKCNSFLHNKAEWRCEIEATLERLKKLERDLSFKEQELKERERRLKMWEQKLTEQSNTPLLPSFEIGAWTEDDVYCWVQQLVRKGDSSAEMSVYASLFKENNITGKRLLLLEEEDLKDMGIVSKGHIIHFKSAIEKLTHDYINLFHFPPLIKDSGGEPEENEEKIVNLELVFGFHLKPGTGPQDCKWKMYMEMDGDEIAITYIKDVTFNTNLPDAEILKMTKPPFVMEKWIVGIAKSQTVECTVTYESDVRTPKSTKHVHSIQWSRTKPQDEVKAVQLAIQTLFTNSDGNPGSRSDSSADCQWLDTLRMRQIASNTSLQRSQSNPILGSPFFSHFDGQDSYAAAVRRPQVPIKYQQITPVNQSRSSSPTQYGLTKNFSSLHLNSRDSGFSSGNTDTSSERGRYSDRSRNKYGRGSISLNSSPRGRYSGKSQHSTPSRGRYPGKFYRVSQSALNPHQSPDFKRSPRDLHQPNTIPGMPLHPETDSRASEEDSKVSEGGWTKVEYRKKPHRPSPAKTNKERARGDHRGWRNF
T9 sequence (Q16288 32-839): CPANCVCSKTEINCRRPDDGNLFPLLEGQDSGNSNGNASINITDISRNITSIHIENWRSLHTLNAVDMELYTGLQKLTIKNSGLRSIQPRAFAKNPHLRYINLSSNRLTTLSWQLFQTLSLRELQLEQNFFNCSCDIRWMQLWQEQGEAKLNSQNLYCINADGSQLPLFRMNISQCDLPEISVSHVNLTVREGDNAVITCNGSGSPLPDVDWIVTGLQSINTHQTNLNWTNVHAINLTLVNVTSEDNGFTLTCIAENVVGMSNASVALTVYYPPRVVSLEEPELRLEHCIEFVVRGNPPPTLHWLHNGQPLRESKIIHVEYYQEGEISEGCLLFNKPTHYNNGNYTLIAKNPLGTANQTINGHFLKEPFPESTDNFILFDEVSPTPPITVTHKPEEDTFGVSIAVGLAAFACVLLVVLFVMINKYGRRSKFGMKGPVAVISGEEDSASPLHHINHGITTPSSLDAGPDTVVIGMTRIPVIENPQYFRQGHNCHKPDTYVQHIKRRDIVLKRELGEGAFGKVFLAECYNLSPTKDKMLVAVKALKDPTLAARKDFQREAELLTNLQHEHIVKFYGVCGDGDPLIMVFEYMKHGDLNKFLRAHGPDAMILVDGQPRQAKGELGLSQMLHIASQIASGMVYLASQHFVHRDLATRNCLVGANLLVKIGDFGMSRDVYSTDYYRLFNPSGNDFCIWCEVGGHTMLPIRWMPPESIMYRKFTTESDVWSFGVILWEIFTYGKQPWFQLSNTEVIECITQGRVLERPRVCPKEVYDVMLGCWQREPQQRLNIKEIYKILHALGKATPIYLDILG
T4 sequence (O95819 whole entry): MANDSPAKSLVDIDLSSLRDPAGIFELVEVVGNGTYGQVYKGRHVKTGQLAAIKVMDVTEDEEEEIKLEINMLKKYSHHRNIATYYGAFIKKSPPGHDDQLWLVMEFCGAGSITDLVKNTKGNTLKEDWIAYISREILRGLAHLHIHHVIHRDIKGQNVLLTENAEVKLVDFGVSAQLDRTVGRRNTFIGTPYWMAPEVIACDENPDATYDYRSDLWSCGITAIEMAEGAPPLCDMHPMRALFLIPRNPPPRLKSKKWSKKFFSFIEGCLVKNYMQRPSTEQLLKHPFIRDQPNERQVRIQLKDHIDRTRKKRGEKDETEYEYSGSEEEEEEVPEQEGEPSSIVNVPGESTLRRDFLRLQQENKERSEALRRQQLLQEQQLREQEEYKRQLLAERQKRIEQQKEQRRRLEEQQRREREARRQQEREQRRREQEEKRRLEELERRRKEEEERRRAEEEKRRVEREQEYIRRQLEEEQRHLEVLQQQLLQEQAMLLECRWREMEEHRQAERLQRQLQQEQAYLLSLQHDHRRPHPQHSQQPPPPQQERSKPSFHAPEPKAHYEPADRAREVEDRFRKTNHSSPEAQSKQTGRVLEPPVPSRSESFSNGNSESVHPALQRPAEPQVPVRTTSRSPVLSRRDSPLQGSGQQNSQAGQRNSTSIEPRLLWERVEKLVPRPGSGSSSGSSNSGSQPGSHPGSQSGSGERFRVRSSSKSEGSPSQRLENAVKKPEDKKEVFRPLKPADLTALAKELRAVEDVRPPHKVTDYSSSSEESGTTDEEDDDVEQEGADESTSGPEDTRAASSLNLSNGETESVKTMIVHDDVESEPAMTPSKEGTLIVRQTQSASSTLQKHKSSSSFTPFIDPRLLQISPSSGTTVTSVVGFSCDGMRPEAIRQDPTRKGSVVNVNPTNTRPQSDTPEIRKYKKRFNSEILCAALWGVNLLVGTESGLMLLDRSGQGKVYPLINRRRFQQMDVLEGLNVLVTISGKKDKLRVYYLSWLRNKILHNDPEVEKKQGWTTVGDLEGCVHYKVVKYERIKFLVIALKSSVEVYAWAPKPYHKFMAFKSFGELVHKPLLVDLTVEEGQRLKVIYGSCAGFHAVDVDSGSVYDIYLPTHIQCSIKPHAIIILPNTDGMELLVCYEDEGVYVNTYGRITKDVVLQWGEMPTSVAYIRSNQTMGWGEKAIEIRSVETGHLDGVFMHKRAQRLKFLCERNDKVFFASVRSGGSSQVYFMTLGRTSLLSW

Consider `CNC(=O)c1cc(Oc2ccc(NC(=O)Nc3ccc(Cl)c(C(F)(F)F)c3)c(F)c2)cc[n+]1[O-]` [M‐2], for which the equilibrium dissociation constant (Kd) at BRAF was determined as 24 nM; at DDR1, 0.5 nM; at EPHA6 it was 210 nM; on MAP4K4 it was 42 nM; on MEK5 it was 10 nM; on MKNK2, 20 nM. Further, the Kd at RAF1 worked out at 130 nM; at SLK, 64 nM; at TRKC it was 15 nM; at ZAK, 6.7 nM. For the same compound, the 50% inhibitory concentration (IC50) at PDGFRα was 44 nM; at VEGFR3, approximately 4 nM. Also, the “Proportion of protein‐bound drug” value in data set [1] is listed as “more than 99%”. For the same compound, the “Unbound fraction, fold lower than that of regorafenib” value in [1] is “about 2.5 fold”. For the same compound, the “Major plasma protein to which the compound was bound” value in [1] is reported as “albumin”. Also, the “Unbound fraction, fold lower in human than in murine plasma” value in [1] is on record as ~ 5 fold. Further, the “Unbound fraction (%)” value in data set [1] (setting [3]) is 0.188 ± 0.004%. The Inhibition of proliferation entry in [2] is recorded as “only moderate inhibition”.
With `NC(=O)c1cc(Oc2ccc(NC(=O)Nc3ccc(Cl)c(C(F)(F)F)c3)c(F)c2)cc[n+]1[O-]` [M‐5], the Kd worked out at 17 nM on BRAF; 0.4 nM on DDR1; 640 nM on EPHA6; 89 nM at MAP4K4; 10 nM at MEK5; 11 nM on MKNK2. In addition, the Kd on RAF1 was determined as 66 nM; at SLK, 100 nM; at TRKC it was 56 nM; on ZAK it was 7 nM. Further, the IC50 on PDGFRα was 61 nM; on VEGFR3 it was approximately 16 nM. In addition, the “Proportion of protein‐bound drug” value in data set [1] is on record as “more than 99%”. Also, the “Unbound fraction, fold lower than that of regorafenib” value in data set [1] is reported as “approximately 10 fold”. Also, in data set [1], the “Major plasma protein to which the compound was bound” value is recorded as “albumin”. In addition, the “Unbound fraction, fold lower in human than in murine plasma” value in [1] is recorded as ~ 8 fold. The “Unbound fraction (%)” value in data set [1] (setting [3]) is listed as 0.053 ± 0.013%. The Inhibition of proliferation entry in [2] was “only moderate inhibition”.
As for `CNC(=O)c1cc(Oc2ccc(NC(=O)Nc3ccc(Cl)c(C(F)(F)F)c3)c(F)c2)ccn1` [Regorafenib, reference compound], the Kd was 0.9 nM and 0.8 nM at DDR1; 48 nM and 23 nM on EPHA6; 450 nM and 400 nM on MAP4K4; 40 nM at MEK5; 90 nM and 64 nM on MKNK2; 120 nM and 98 nM at SLK. Besides, the Kd at TRKC is 180 nM and 280 nM; on ZAK, 2.8 nM and 2 nM. The “Proportion of protein‐bound drug” value in [1] is “more than 99%”. Moreover, the “Major plasma protein to which the compound was bound” value in data set [1] is recorded as “albumin”. For the same compound, in data set [1] (setting [3]), the “Unbound fraction (%)” value was found to be 0.488 ± 0.091%. In data set [1] (male, human, plasma, arithmetic mean ± SD), the fraction unbound was approximately 0.005. Further, the Inhibition of proliferation entry in data set [2] is on record as “only moderate inhibition”.

By Kd is commonly meant the concentration at which binding is half-saturated. As usually defined, the IC50 is the point on the concentration scale where inhibition reaches its midpoint. Broadly, the fraction unbound is free concentration divided by total concentration.
